{
  "source": "paper PMC4961418",
  "about": "“A Selective Irreversible Inhibitor of Furin Does Not Prevent Pseudomonas Aeruginosa Exotoxin A-Induced Airway Epithelial Cytotoxicity” (PLoS ONE, 2016)",
  "molecular_target": "cathepsin B (Homo sapiens, UniProt P07858)",
  "assay": "Cathepsin B activity assay",
  "assay_type": "biochemical",
  "conditions": "cathepsin B, N = 3",
  "description": "Fig 3 Comparison of QUB-F1 and furin I versus cathepsin B. Cathepsin B activity was assessed in the presence or absence of various concentrations of QUB-F1 or furin I (N = 3). Data represent mean ± s.e.m.",
  "note": "Peptide text beside a SMILES is read from it. * marks the point of attachment. Decanoyl = CCCCCCCCCC(=O)*; CH2Cl = ClC*",
  "data": [
    {"smiles": "CCCCCCCCCC(=O)N[C@@H](CCCNC(=N)N)C(=O)N[C@H](C(=O)N[C@@H](CCCCN)C(=O)N[C@@H](CCCNC(=N)N)C(=O)CCl)C(C)C", "note": "[furin I, Decanoyl-RVKR-chloromethylketone (CMK), reference compound] (Decanoyl-RVKR-CH2Cl)", "values": [
      {"measurement": "IC50", "result": 56, "unit": "nM"}
    ]}
  ]
}
